{"source": "patent US9387192B2", "about": "“Combination of rocaglamide and apoptosis inducing substances for the treatment of cancer” (DKFZ DEUTCHERS KREBSFORSCHUNGSZENTRUM, priority 2008, dated 2016)", "key": {"[1]": {"tested_on": "mouse leukemic RMA T cells", "experiment": "Activation-induced apoptosis in RMA cells in vitro", "format": "cell-based", "method": "(§1) The mouse lymphoma cell line RMA (van Hall et al., 2000), the human leukemic T cell lines DND-41 (contains a p53 mutation), Jurkat J16, Jurkat A3 and Jurkat A3 deficient in FADD (J-FADDdef) (purchased from American Type Culture Collection, ATCC, Manassas, USA) were cultured in RPMI 1640 medium (GIBCO laboratories, Grand Island, N.Y.) supplemented with 10% FCS, 50 μg/ml gentamicin (GIBCO), 6 mM HEPES (GIBCO, 1 M solution), and 2 mM L-glutamine (GIBCO, 200 mM solution) at 37° C. and 5% CO2. T cells were stimulated with either plate-bound αCD3 (OKT3 10 μg/ml) or PMA (5 ng/ml) plus ionomycin (0.5 μM).\n(§2) Cells were plated in triplicates and treated for the indicated periods of time at 37° C. with different reagents as described in the figure legends. Rocaglamide derivatives used in this study were isolated from various Aglaia species to at least 98% purity determined by HPLC as reported previously (Schneider et al., 2000). The structures of the compounds were unequivocally elucidated based on their NMR and mass spectra as described before (Schneider et al., 2000). Apoptotic cell death was examined by two parameters: FSC/SSC index of apoptotic-like change in cell size and granularity by FACScan and by analysis of DNA fragmentation (Vermes et al., 2000)."}, "[2]": {"tested_on": "RMA tumor", "experiment": "RMA tumor graft in C57/BL6 mice", "format": "in vivo, mouse", "method": "C57/BL6 mice were implanted subcutaneously in the right dorsal flank region with RMA (1×10^6 cells). One day after grafting, Roc-Q (1 mg/kg body weight, dissolved in DMSO and diluted in olive oil) was administered by intraperitoneal injection (i.p.) as indicated in the figure legend. The control group was treated in an analogous manner with the vehicle. The tumor size was measured with a micrometer caliper at the indicated times and the tumor volume (V) was calculated by the formula V=(a^2×b)/2, where “a” is the width and “b” is the length in mm (Mattern et al., 1998). All protocols using and maintaining animals were approved by the German Animal Protection Authority (Office Regierungspräsidium Karlsruhe). Treated and control animals were compared for differences in tumor growth after end of treatment using the non-parametric method in a one-sided statistical test at the significance level of 0.05 (Koziol et al., 1981).\nTo investigate whether the effect of Roc on activation-induced cell death is also occurred in vivo, RMA cells were grafted subcutaneously into the C57/BL6 mice. One day after xenografting, the mice were randomly separated into four groups (each group contains 5 mice). One group with no treatment was taken as a control, and the other three groups received Con A, Roc-Q, or a combination of Roc-Q and Con A, respectively, three times per week by intraperitoneal injection (i.p.). Two independent experiments were carried out. In the first experiment, RMA (10×10^5 cells)-grafted mice were treated with or without 1 mg/kg body weight of Roc-Q in the presence or absence of Con A as described in FIG. 4A. No toxicity was seen up to a dose of 10 mg/kg body weight (Lee et al., 1998). Acute toxicity was reported with an LD50 of >300 mg/kg (Umezawa et al., 1997). […] In this experiment, the control mice developed tumors after 9 days."}, "[3]": {"settings": "cited from earlier work"}, "[4]": {"experiment": "Glutamate pyruvate transaminase (GPT) liver toxicity in mice", "format": "in vivo, mouse", "settings": "RMA-grafted mice treated with Roc-Q, Con A or both; normal GPT below 50 U/l", "method": "To examine the liver toxicity of Rocaglamide, the activities of GPT were determined from the heparinized blood of mice by test strips Reflotron® GPT as described by the instruction of the manufacture (Roche 10745138). The normal levels of GPT activity should be below 50 U/l."}, "[5]": {"tested_on": "leukemia cell line Jurkat", "experiment": "Apoptosis (FSC/SSC) in Jurkat with TNFα or TRAIL", "format": "cell-based", "settings": "24 h", "method": "(§3) Pancreatic carcinoma cell lines MiaPaca and Capan-1 were treated with Roc-A (50 nM) in combination with different doses of anticancer reagents for 48 h. Apoptotic cell death was determined by Nicoletti (DNA-fragmentation). The leukemia cell line Jurkat was treated with either TNFα (20 ng/ml) or TRAIL (2 ng/ml) in combination with different doses of rocaglamide as indicated for 24 h. Apoptotic cell death was determined by FSC/SSC."}, "[6]": {"tested_on": "human leukemic Jurkat T cells", "experiment": "Apoptosis (FSC/SSC, DNA fragmentation) in Jurkat T cells", "format": "cell-based", "method": "as §1, §2"}, "[7]": {"tested_on": "caspase-8, -9, -3, Bid, PARP", "experiment": "Western blot of apoptotic pathway proteins in Jurkat T cells", "format": "cell-based, human", "settings": "24 h", "method": "1×10^6 cells were sedimented and lysed for 15 min in ice-cold lyses buffer (29 mM Tris-HCl, pH 7.4, 137 mM NaCl, 10% (w/v) Glycerin, 1% (v/v) Triton X-100, 2 mM EDTA, 1 mM PMSF, 0.4 mM […], 10 mM NaF, complete protease inhibitor cocktail, Roche). After removing the cell debris by centrifugation at 13,000 rpm for 15 min, equal amounts of proteins were separated on a 12% SDS-PAGE, blotted onto a nitrocellulose membrane (Amersham Biosciences, Little Chalfon, UK) and blocked with 5% non-fat drymilk in PBS/Tween (0.05% Tween-20 in PBS). […]"}, "[8]": {"tested_on": "Capan-1 pancreatic carcinoma cell line", "experiment": "Apoptosis (Nicoletti) in Capan-1 with anticancer reagents", "format": "cell-based", "settings": "Capan-1, Roc-A 50 nM with different doses of anticancer reagents, 48 h", "method": "as §3"}, "[9]": {"tested_on": "human leukemic DND-41 T cells (p53 mutation)", "experiment": "Apoptosis in DND-41 T cells", "format": "cell-based", "method": "as §1, §2"}, "[10]": {"tested_on": "normal peripheral blood T cells", "experiment": "Activation-induced cell death in normal peripheral blood T cells (day 0, day 6)", "format": "cell-based, human", "method": "Human peripheral T cells were prepared as described previously (Klas et al., 1993) and were more than 90% CD3 positive. For activation, resting T cells (day 0) were cultured at 2×10^6 cells/ml with 1 μg/ml PHA for 16 h (day 1). Day 1 T cells were then washed three times and cultured for an additional 5 days in the presence of 25 U/ml IL-2 (day 6).\nas §2"}, "[11]": {"tested_on": "MiaPaca pancreatic carcinoma cell line", "experiment": "Apoptosis (Nicoletti) in MiaPaca with anticancer reagents", "format": "cell-based", "settings": "Roc-A 50 nM with different doses of anticancer reagents, 48 h", "method": "as §3"}, "[12]": {"tested_on": "Hodgkin lymphoma cell line L1236", "experiment": "Apoptosis (DNA fragmentation) in L1236 cells", "format": "cell-based, human", "settings": "L1236, TRAIL alone, different concentrations, 48 h", "method": "(§4) The human malignant cell lines used in this study are: the human leukemic T cell lines CEM and Jurkat (J16), the HTLV-1 ATL derived cell lines SP, MT-2, CHAMP, and ATL-3, and Hodgkin lymphoma derived cell lines L1236 and KM-H2. Human peripheral blood T cells were prepared as described previously (Zhu et al., 2009) and were more than 90% CD3 positive. All cells were cultured in RPMI 1640 medium (GIBCO laboratories, Grand Island, N.Y.) supplemented with 10% FCS, 50 μg/ml gentamicin (GIBCO), 6 mM HEPES (GIBCO, 1 M solution), and 2 mM L-glutamine (GIBCO, 200 mM solution) at 37° C. and 5% CO2.\n(§5) Cells were plated in triplicates and treated for the indicated periods of time at 37° C. with different doses of Rocaglamide AR (Roc-AR) (>98% pure, assessed by HPLC) (Proksch et al., 2005), Superkiller-TRAIL (Alexis) or LZ-CD95L (Walczak et al., 1999) alone, or in combinations as indicated in figures. Apoptotic cell death was determined by analysis of DNA fragmentation (% DNA fragmentation) as previously described (Krueger et al., 2006). Specific apoptosis was calculated as (percentage of experimental apoptosis−percentage of spontaneous apoptosis)/(100−percentage of spontaneous apoptosis)×100."}, "[13]": {"tested_on": "Hodgkin lymphoma cell line KM-H2", "experiment": "Apoptosis (DNA fragmentation) in KM-H2 cells", "format": "cell-based, human", "settings": "KM-H2, TRAIL alone, different concentrations, 48 h", "method": "as §4, §5"}, "[14]": {"tested_on": "HTLV-1-associated ATL cell lines SP, MT-2, ATL-3 and CHAMP", "experiment": "Apoptosis (DNA fragmentation) in HTLV-1-associated ATL cell lines", "format": "cell-based, human", "settings": "HTLV-1-infected ATL cell lines, TRAIL alone, different concentrations", "method": "as §4, §5"}}, "data": [{"compound": "CNC(=O)C1C(O)C2(O)c3c(OC)cc(OC)cc3OC2(c2ccc(OC)cc2)C1c1ccccc1", "note": "(centres unmarked) [Roc-Q]", "values": [{"measurement": "PMA/ionomycin- or Con A-stimulation induced cell death", "setting": "[1]", "value": "enhanced"}, {"measurement": "tumor size and tumor growth rate", "setting": "[2]; first experiment, 10×10^5 RMA cells, single agent only (Roc-Q 1 mg/kg or Con A 5 mg/kg) i.p. three times per week", "value": "No significant changes in tumor size and tumor growth rate"}, {"measurement": "tumor growth", "setting": "[2]; first experiment, Roc-Q 1 mg/kg combined with Con A 5 mg/kg i.p.", "value": "delayed tumor growth"}, {"measurement": "tumor size", "setting": "[2]; first experiment, Roc-Q 1 mg/kg combined with Con A 5 mg/kg i.p., final day", "value": "reduced tumor sizes"}, {"measurement": "body weight loss", "setting": "[2]; mice after treatment with Roc-Q, Con A or both", "value": "no body weight loss"}, {"measurement": "tumor growth", "setting": "[2]; second experiment, 2.5×10^5 RMA cells, single agent only (Roc-Q 2.5 mg/kg or Con A 5 mg/kg) i.p.", "value": "Significantly delayed tumor growth"}, {"measurement": "tumor progression and tumor growth", "setting": "[2]; second experiment, Roc-Q 2.5 mg/kg combined with Con A 5 mg/kg, except for one mouse", "value": "further inhibition"}, {"measurement": "tumor size and tumor weight", "setting": "[2]; second experiment, Roc-Q alone 2.5 mg/kg", "value": "reduced tumor sizes and tumor weight"}, {"measurement": "dose up to which no toxicity was seen", "setting": "[3]; Lee et al., 1998", "value": "≤ 10", "unit": "mg/kg body weight"}, {"measurement": "acute toxicity LD50", "setting": "[3]; Umezawa et al., 1997", "value": "> 300", "unit": "mg/kg"}, {"measurement": "liver toxicity (GPT activity)", "setting": "[4]", "value": "No liver toxicity"}]}, {"compound": "COc1ccc([C@@]23Oc4cc(OC)cc(OC)c4[C@]2(O)[C@H](O)[C@H](C(=O)N(C)C)[C@H]3c2ccccc2)cc1", "note": "[rocaglamide]", "values": [{"measurement": "apoptotic cell death", "setting": "[5]; TNFα 20 ng/ml with different doses of rocaglamide", "value": "synergistically increased the apoptic cell death"}, {"measurement": "apoptotic cell death", "setting": "[5]; TRAIL 2 ng/ml with different doses of rocaglamide", "value": "synergistically increased the apoptic cell death"}]}, {"compound": "Roc-A", "values": [{"measurement": "apoptotic cell death", "setting": "[6]; Jurkat T cells stimulated with αCD3 or PMA/ionomycin in the presence of Roc-A", "value": "dose-dependent increase in apoptotic cell death"}, {"measurement": "apoptotic cell death", "setting": "[6]; Jurkat, Roc-A 50 nM combined with anti-CD95 antibody αAPO-1, 24 h", "value": "enhanced apoptotic cell death"}, {"measurement": "apoptotic cell death", "setting": "[6]; Jurkat, Roc-A 50 nM combined with recombinant LZ-CD95L, 24 h", "value": "enhanced apoptotic cell death"}, {"measurement": "PMA/ionomycin- or Con A-stimulation induced cell death", "setting": "[1]", "value": "enhanced"}, {"measurement": "caspase and PARP cleavage (Western blot)", "setting": "[7]; Roc-A alone", "value": "activation of caspase-9 and generation of a detectable amount of the active p17 caspase-3 product and weak PARP cleavage"}, {"measurement": "cleavage of caspase-8 (Western blot)", "setting": "[7]; Roc-A with T-cell stimulation (PMA/ionomycin)", "value": "strongly increased cleavages of caspase-8"}, {"measurement": "apoptotic cell death", "setting": "[8]", "value": "synergistically increased the apoptic cell death"}, {"measurement": "cell death compared to Jurkat T cells", "setting": "[9]; DND-41, Roc-A alone", "value": "more resistant"}, {"measurement": "apoptotic cell death", "setting": "[9]; DND-41, combination of Roc-A and PMA/ionomycin stimulation", "value": "dramatic increase in apoptotic cell death"}, {"measurement": "toxicity", "setting": "[10]; day 0 (resting) T cells, Roc-A alone 50 nM, 48 h", "value": "no toxicity"}, {"measurement": "cell death", "setting": "[10]; day 0 T cells, Roc-A 50 nM with PMA/ionomycin, 48 h", "value": "did not increase cell death"}, {"measurement": "PMA/ionomycin-induced cell death", "setting": "[10]; day 6 (pre-activated) T cells re-stimulated with PMA/ionomycin, Roc-A 50 nM", "value": "did not further enhance PMA/ionomycin-induced cell death"}, {"measurement": "apoptotic cell death", "setting": "[11]", "value": "synergistically increased the apoptic cell death"}]}, {"compound": "TRAIL", "values": [{"measurement": "TRAIL-mediated apoptosis", "setting": "[12]", "value": "completely resistant"}, {"measurement": "TRAIL-mediated apoptosis", "setting": "[13]", "value": "completely resistant"}, {"measurement": "TRAIL-induced apoptosis", "setting": "[14]", "value": "resistant to TRAIL-induced apoptosis"}]}]}
